Like-named read-outs stand apart in the source and are kept apart here.
Key:
Assay in all cases: Fluo-4 calcium mobilization assay (FLIPR), stable inducible cells
Assay type in all cases: cell-based
TAS2R43 = target: T1, TAS2R43 (Homo sapiens, UniProt P59537); conditions: for EC50: read-out: TAS2R43 / EC50-conc.
T1 sequence (P59537 1-309): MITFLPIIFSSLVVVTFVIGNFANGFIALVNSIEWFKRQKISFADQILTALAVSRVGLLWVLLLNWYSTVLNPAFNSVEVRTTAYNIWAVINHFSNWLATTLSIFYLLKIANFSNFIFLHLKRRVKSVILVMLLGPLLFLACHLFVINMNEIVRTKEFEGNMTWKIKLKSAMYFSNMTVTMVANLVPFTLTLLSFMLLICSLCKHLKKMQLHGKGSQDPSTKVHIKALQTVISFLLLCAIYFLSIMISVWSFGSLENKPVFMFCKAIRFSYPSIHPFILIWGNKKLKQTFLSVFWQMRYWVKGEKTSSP
Description: Fluo-4 calcium mobilization assay (FLIPR), stable inducible cells on TAS2R43

TAS2R14 = target: T2, TAS2R14 (Homo sapiens, UniProt Q9NYV8); conditions: agonist; C1 buffer pH 7.4; non-induced cells subtracted
T2 sequence (Q9NYV8 1-317): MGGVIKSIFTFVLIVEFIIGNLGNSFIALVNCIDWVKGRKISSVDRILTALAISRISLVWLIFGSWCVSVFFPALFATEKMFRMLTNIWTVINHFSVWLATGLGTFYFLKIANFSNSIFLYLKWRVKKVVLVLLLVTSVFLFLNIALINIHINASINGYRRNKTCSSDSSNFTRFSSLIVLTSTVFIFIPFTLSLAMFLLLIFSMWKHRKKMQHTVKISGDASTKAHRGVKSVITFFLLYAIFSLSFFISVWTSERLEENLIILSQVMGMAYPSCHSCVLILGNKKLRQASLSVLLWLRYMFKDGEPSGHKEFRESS
Description: Fluo-4 calcium mobilization assay (FLIPR), stable inducible cells on TAS2R14

TAS2R46 = target: T3, TAS2R46 (Homo sapiens, UniProt P59540)
T3 construct: cDNA in pcDNA5/FRT/TO
T3 sequence (P59540 1-309): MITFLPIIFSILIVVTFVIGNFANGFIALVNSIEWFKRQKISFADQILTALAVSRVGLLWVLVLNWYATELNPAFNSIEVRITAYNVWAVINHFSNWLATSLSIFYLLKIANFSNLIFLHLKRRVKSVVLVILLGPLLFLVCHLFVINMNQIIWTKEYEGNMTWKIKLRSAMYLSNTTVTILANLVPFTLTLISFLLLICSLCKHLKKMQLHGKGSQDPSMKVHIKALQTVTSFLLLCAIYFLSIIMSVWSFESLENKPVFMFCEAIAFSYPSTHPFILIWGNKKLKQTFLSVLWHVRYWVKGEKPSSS
Description: Fluo-4 calcium mobilization assay (FLIPR), stable inducible cells on TAS2R46

[1] = agonist, C1 buffer pH 7.4, non-induced cells subtracted

EC50 (TAS2R43; [1]) | TAS2R14 / Threshold (TAS2R14) | TAS2R46 / Threshold (TAS2R46; [1]) | TAS2R43 threshold (TAS2R43; [1]) | EC50 (TAS2R46; read-out: TAS2R46 / EC50-conc.) | EC50 (TAS2R43) | Compound
0.46 ± 0.08 µM | 30 µM |  |  |  |  | lactucopicrin
 | 100 µM | 30 µM | 10 µM |  |  | CC1=C2C(=O)C=C(CO)[C@@H]2[C@H]2OC(=O)[C@@H](C)[C@@H]2[C@@H](O)C1 [11β,13-dihydrolactucin]
 | 100 µM |  |  | 8.85 ± 1.17 µM | 14.9 ± 2.5 µM | C=C1C(=O)O[C@@H]2[C@H]3C(CO)=CC(=O)C3=C(C)C[C@H](O)[C@@H]12 [lactucin]

Source: paper PMC9806268, “Overlapping activation pattern of bitter taste receptors affect sensory adaptation and food perception” (Frontiers in Nutrition, 2022)
